Reference: ChEMBL document CHEMBL5291721, “A preclinical secondary pharmacology resource illuminates target-adverse drug reaction associations of marketed drugs” (Nat Commun, 2023)

Columns and labels:
[1] = molecular target: T1, Muscarinic acetylcholine receptor M2 (Homo sapiens, UniProt P08172)
T1 sequence (P08172 whole entry): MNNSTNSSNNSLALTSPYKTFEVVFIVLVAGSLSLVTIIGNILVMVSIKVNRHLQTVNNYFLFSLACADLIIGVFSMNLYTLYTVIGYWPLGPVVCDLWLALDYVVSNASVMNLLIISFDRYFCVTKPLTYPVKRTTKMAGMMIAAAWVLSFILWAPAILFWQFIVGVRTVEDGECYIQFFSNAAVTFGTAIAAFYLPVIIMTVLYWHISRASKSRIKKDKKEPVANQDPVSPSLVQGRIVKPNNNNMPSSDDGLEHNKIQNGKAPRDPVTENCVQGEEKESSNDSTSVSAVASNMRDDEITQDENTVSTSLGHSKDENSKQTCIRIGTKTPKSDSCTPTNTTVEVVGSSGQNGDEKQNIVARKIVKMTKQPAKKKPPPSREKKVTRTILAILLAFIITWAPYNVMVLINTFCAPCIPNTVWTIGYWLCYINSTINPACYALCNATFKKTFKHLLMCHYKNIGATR

[2] = molecular target: Voltage-gated inwardly rectifying potassium channel KCNH2 (Homo sapiens, UniProt Q12809); type: functional
Sequence of Voltage-gated inwardly rectifying potassium channel KCNH2 (Q12809 whole entry): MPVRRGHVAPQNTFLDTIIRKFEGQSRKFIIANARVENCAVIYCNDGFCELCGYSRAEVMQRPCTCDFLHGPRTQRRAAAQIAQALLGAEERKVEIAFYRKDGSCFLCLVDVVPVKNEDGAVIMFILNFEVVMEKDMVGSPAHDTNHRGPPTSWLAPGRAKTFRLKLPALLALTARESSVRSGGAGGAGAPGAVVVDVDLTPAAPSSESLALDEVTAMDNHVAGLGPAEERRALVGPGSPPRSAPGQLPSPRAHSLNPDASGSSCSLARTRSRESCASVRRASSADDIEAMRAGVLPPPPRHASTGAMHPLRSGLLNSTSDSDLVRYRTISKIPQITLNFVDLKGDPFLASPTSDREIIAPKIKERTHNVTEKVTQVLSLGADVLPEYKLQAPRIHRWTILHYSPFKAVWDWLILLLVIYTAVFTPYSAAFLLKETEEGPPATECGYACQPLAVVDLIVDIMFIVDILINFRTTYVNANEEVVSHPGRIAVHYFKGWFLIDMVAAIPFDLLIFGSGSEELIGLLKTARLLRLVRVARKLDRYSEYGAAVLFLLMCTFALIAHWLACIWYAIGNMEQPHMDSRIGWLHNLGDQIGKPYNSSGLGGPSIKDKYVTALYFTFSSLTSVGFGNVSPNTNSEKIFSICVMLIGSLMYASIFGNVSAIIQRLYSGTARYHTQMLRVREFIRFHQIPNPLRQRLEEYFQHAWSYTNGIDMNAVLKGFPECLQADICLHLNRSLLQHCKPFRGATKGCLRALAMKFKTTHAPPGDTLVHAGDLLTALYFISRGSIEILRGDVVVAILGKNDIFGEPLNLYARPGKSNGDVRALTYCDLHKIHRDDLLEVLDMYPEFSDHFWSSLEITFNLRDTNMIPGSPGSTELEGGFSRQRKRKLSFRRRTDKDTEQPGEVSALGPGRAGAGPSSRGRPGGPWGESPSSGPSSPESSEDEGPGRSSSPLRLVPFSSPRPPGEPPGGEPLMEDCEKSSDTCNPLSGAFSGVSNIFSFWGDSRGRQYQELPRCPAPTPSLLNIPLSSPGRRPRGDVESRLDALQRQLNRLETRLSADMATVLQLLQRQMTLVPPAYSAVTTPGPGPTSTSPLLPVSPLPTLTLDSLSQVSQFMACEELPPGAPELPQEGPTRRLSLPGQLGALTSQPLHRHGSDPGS

[3] = molecular target: Histamine H3 receptor (Homo sapiens, UniProt Q9Y5N1)
Sequence of Histamine H3 receptor (Q9Y5N1 whole entry): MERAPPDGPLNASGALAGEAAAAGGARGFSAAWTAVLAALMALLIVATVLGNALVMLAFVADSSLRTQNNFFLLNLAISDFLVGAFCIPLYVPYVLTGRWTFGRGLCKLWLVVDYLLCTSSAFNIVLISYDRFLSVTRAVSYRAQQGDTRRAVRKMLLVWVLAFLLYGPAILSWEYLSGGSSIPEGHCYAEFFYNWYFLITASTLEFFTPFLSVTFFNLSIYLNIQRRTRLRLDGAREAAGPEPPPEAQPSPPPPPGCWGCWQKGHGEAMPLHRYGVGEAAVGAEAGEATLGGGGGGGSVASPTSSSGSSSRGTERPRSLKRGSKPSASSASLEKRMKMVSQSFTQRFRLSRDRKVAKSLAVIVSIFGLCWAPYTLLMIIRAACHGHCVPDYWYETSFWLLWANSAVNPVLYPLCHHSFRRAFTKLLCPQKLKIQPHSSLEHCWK

[4] = molecular target: Mu-type opioid receptor (Homo sapiens, UniProt P35372)
[5] = molecular target: 5-hydroxytryptamine receptor 2B (Homo sapiens, UniProt P41595); type: functional, cell-based
[6] = molecular target: T2, Alpha-2A adrenergic receptor (Homo sapiens, UniProt P08913)
T2 sequence (P08913 whole entry): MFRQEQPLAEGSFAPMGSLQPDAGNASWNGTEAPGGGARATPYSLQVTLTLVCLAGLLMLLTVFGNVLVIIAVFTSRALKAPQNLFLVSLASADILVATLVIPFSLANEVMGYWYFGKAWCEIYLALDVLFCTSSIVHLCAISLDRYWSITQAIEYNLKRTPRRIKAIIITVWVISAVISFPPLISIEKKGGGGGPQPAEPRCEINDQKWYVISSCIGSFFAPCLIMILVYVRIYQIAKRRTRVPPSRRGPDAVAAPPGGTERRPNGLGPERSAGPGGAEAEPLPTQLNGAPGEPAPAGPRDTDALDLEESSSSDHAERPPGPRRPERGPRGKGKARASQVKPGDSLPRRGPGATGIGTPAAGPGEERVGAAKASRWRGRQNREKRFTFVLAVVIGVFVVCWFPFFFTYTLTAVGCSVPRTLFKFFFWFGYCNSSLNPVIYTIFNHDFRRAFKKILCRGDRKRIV

[7] = molecular target: Prothrombin (Homo sapiens, UniProt P00734); type: functional
[8] = molecular target: D(1A) dopamine receptor (Homo sapiens, UniProt P21728)
Sequence of D(1A) dopamine receptor (P21728 whole entry): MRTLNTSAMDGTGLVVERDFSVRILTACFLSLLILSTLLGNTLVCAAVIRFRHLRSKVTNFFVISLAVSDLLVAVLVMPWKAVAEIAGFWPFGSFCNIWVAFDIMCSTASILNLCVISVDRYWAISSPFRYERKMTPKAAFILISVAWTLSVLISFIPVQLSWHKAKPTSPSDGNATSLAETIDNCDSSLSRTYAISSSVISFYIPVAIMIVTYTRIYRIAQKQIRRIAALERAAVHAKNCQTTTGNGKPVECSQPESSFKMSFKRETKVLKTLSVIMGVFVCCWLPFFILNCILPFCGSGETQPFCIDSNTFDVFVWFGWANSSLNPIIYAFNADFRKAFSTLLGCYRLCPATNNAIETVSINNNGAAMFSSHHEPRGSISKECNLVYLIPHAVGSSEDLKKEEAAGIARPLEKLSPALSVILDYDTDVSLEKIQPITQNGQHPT

[9] = molecular target: cGMP-inhibited 3',5'-cyclic phosphodiesterase 3A (Homo sapiens, UniProt Q14432); type: functional
Sequence of cGMP-inhibited 3',5'-cyclic phosphodiesterase 3A (Q14432 whole entry): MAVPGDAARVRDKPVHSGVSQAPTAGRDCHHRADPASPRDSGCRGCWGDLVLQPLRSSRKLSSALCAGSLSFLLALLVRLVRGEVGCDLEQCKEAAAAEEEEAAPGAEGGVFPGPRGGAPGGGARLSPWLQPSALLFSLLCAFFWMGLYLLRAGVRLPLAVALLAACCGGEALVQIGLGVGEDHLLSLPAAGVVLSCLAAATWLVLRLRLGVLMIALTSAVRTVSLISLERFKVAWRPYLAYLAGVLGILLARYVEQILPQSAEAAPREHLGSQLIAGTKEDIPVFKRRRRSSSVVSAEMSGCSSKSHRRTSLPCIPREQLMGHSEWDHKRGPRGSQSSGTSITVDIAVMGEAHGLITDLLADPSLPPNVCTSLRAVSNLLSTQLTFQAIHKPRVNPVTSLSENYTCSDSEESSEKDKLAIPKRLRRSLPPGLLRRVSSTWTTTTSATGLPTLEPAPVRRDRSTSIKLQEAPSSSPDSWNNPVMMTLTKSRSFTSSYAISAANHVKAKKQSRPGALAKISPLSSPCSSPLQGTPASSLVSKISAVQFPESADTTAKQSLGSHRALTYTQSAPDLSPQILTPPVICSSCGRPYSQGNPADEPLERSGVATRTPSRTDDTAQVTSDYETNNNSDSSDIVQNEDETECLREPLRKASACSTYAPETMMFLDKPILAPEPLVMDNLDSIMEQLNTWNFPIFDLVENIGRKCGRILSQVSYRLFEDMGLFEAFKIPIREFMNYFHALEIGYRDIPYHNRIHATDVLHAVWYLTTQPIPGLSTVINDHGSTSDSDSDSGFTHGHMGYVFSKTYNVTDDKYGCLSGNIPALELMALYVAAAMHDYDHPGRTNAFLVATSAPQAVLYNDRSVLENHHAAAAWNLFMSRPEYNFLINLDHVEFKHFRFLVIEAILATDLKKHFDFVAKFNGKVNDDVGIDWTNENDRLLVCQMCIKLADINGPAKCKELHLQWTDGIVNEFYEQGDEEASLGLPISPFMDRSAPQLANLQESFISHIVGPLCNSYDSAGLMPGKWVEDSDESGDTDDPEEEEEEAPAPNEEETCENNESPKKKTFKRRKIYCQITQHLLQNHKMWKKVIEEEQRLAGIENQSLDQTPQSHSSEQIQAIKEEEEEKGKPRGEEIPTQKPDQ

[10] = molecular target: Sodium-dependent dopamine transporter (Homo sapiens, UniProt Q01959)
Sequence of Sodium-dependent dopamine transporter (Q01959 whole entry): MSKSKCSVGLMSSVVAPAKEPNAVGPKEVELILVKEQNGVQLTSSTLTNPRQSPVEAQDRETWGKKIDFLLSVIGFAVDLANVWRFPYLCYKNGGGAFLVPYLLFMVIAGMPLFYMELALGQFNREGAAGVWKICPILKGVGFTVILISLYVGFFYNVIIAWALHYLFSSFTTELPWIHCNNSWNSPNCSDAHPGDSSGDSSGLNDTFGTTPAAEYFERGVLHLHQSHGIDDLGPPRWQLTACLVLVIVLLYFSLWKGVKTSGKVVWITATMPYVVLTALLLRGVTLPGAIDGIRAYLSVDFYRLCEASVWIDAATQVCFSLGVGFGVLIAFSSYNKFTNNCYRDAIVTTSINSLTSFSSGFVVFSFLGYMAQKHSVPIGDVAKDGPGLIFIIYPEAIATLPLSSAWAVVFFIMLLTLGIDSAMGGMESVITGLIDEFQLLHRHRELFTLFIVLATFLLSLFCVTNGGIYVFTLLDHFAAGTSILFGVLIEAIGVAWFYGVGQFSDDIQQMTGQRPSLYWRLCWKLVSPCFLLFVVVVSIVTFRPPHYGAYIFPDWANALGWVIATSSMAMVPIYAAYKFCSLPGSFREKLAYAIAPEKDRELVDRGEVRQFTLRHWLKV

[11] = molecular target: 3',5'-cyclic-AMP phosphodiesterase 4A (Homo sapiens, UniProt P27815); type: functional
Sequence of 3',5'-cyclic-AMP phosphodiesterase 4A (P27815 whole entry): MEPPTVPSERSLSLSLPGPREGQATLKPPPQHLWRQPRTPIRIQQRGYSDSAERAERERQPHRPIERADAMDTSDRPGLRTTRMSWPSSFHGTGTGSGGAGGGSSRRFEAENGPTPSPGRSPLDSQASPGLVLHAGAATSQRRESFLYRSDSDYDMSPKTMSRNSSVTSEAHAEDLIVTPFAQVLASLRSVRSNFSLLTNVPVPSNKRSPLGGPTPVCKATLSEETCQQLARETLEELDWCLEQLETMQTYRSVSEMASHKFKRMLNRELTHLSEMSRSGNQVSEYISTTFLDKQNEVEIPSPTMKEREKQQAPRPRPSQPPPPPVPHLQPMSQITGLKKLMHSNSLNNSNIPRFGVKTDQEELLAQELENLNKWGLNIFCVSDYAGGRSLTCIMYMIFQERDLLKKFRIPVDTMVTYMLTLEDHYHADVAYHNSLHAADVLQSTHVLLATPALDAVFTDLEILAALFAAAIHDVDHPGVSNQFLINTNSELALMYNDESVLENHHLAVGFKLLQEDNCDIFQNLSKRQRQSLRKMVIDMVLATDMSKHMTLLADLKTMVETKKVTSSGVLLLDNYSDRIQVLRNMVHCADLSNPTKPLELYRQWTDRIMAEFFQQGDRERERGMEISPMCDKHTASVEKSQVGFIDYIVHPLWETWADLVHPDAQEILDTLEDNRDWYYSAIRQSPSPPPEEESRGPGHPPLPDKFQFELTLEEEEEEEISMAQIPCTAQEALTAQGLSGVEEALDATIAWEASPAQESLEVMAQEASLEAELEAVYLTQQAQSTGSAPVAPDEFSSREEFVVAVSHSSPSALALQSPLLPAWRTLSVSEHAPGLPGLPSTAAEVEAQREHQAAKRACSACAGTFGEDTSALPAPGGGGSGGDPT

[12] = molecular target: Prostaglandin G/H synthase 1 (Homo sapiens, UniProt P23219); type: functional
[13] = molecular target: T3, Alpha-1A adrenergic receptor (Homo sapiens, UniProt P35348); type: functional, cell-based
T3 sequence (P35348 whole entry): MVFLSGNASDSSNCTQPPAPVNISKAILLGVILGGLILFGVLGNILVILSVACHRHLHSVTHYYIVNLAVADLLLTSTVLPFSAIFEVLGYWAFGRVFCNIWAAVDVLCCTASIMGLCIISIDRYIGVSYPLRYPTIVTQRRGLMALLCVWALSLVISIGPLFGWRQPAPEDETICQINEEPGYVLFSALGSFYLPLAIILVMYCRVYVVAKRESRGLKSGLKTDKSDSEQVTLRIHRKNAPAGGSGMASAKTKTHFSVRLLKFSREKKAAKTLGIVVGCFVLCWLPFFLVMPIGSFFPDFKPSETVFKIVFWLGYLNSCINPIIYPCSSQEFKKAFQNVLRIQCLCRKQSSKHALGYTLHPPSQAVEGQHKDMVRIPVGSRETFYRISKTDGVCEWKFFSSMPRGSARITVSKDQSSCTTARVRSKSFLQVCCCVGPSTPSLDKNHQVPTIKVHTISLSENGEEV

[14] = molecular target: Acetylcholinesterase (Homo sapiens, UniProt P22303); type: functional
[15] = molecular target: T4, Progesterone receptor (Homo sapiens, UniProt P06401)
T4 sequence (P06401 whole entry): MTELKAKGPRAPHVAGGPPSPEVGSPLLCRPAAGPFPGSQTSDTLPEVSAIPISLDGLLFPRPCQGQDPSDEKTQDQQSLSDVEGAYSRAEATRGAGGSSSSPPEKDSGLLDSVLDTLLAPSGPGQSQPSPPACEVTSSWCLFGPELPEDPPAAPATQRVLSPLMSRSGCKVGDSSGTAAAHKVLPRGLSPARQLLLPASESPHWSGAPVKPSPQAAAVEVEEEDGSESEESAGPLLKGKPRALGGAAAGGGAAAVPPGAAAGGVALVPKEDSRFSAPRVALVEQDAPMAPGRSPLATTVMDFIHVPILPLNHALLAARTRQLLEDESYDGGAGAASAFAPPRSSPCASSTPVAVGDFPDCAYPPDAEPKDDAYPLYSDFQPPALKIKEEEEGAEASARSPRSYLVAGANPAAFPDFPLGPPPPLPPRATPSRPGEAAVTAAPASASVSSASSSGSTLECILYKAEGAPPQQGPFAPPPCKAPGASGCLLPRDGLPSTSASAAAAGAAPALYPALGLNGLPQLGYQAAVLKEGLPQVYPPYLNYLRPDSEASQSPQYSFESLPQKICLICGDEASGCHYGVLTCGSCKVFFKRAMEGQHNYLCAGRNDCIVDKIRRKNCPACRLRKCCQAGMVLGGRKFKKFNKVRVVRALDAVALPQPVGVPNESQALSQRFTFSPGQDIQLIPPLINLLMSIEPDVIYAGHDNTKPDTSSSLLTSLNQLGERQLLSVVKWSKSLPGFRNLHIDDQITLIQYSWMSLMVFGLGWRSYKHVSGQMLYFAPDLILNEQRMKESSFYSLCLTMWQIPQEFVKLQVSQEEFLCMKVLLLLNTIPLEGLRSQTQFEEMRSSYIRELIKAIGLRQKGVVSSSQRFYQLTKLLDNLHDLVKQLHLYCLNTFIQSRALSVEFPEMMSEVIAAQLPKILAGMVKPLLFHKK
Further: assay procedure not described here.

Structure (SMILES)	AC50 [1] [µM]	AC50 [2] [µM]	AC50 [3] [µM]	AC50 [4] [µM]	AC50 [5] [µM]	AC50 [6] [µM]	AC50 [7] [µM]	AC50 [8] [µM]	AC50 [9] [µM]	AC50 [10] [µM]	AC50 [11] [µM]	AC50 [12] [µM]	AC50 [13] [µM]	AC50 [14] [µM]	AC50 [15] [µM]
CCCc1nc2c(C)cc(-c3nc4ccccc4n3C)cc2n1Cc1ccc(-c2ccccc2C(=O)O)cc1	> 30	> 30	> 30	2.56	> 30	> 30	> 30	> 30	29.9	> 30	13.5	> 30	9.55	> 30	> 30
CC[C@@H]1C[C@]1(NC(=O)[C@@H]1C[C@@H]2CN1C(=O)[C@H](C(C)(C)C)NC(=O)OCC(C)(C)CCCCc1cccc3c1CN(C3)C(=O)O2)C(=O)NS(=O)(=O)C1CC1	> 30	> 30	> 30	> 30	> 30	> 30	> 30	> 30	> 30	> 30	> 30	26.8	29.7	> 30	> 30
CC(=O)NO [ACETOHYDROXAMIC ACID]	> 30		> 30	> 30	> 30	> 30	> 30	> 30	> 30	> 30	> 30	21.5	> 30	> 30	> 30
CC(=O)NCCCCCC(=O)O [ACEXAMIC ACID]	> 30	> 30	> 30	> 30	> 30	> 30	> 30	> 30	> 30	> 30	> 30	> 30	18.9	> 30	> 30
C[C@H]1CN(C[C@H](Cc2ccccc2)C(=O)NCC(=O)O)CC[C@@]1(C)c1cccc(O)c1 [ALVIMOPAN]	> 30	> 30	> 30		> 30	> 30	> 30	> 30	> 30	> 30	> 30	> 30	> 30	> 30	> 30
O=C(O)c1ccccc1 [BENZOIC ACID]	> 30		> 30	> 30	> 30	> 30	> 30	> 30	> 30	> 30	> 30	> 30	> 30	> 30	> 30
